Patent US6852863B2, “Metabolites of (3-{[4-tert-butyl-benzyl)-(pyridine-3-sulfonyl)-amino]-methyl}-phenoxy)-acetic acid” (Pfizer Inc., priority 2002, dated 2005)

How the values were obtained:
[1] = target: T1, rat EP2 prostaglandin E2 receptor (Rattus norvegicus, UniProt Q62928); test: Rat EP2 receptor binding assay (displacement of 3H-prostaglandin E2); details: 293S cell membranes expressing rat EP2, 3 nM 3H-prostaglandin E2, 1 hour at 25° C.
T1 construct: This full length receptor is used to prepare 293S cells expressing the EP2 receptor; expressed in transfected cells; membranes used in the assay
Text: Rat EP2 Recptor Binding Assay
Assay for Binding to Prostaglandin E2 Receptors
The full length EP2 receptor is made as disclosed in Nemoto et al., Prostaglandins and other Lipid Mediators, 1997, 54, 713-725. This full length receptor is used to prepare 293S cells expressing the EP2 receptor.
293S cells expressing the rat EP2 prostaglandin E2 receptor are generated according to methods known to those skilled in the art. Typically, PCR (polymerase chain reaction) primers corresponding to the 5′ and 3′ ends of the published full length receptor are made according to the well known methods disclosed above and are used in an RT-PCR reaction using the total RNA from rat kidney as a source. […]
Membrane Preparation: All operations are performed at 4° C. […] Pelleted membranes are resuspended to 3-10 mg protein per ml, protein concentration being determined of the method of Bradford [Bradford, M., Anal. Biochem., 72, 248 (1976)]. […]
Binding Assay: Frozen membranes prepared as above are thawed and diluted to 1 mg protein per ml in Buffer A above. […] To determine the amount of ^3H-prostaglandin bound to the membranes, the dried filters are placed into plastic bags with scintillation fluid and counted in a LKB 1205 Betaplate reader (Wallac, Gaithersburg, Md.). […]

[2] = Metabolism of 14C-parent in monkey liver microsomes; format: in vitro ADME; details: 20 μM 14C-parent, NADPH, 30 minutes, 37° C.; HPLC radiochromatogram peak
Protocol: (§1) Human (HL-mix 12), rat, monkey and dog liver microsomes were prepared by differential centrifugation using standard procedures. Prior to use, liver microsomes were thawed on ice and reconstituted using 100 mM potassium phosphate pH 7.4. [^14C]-(3-{[4-tert-butyl-benzyl)-(pyridine-3-sulfonyl)-amino]-methyl}-phenoxy)-acetic acid was dissolved 100 mM potassium phosphate pH 7.4 at a final substrate concentration of 20 μM. Samples were pre-incubated for 3 min with microsomes (CYP 450; 0.5 μM) at 37° C. in a shaking water bath. Incubations were initiated with the addition of 100 μl cofactor (1.1 mM NADPH, 10 mM MgCl2) per 1 ml of incubation mixture. Incubations were stopped after 30 minutes by the addition of an equal volume of cold acetonitrile.
(§2) Metabolite quantification was performed by measuring the areas of individually separated HPLC peaks using the β-RAM (IN/US, Win-flow). […]
(§3) Identification of the metabolites was performed using a Finnigan TSQ 7000 triple quadrupole mass spectrometer equipped with an API-2 electrospray interface. […] The β-RAM response was recorded as a real time analog signal by the MS data collection system. The collected data from the radioactivity and MS detectors were separated by the dwell volume of flow from the MS to the radioactivity detector (corresponding to a dwell time of about 0.2 min.). […]

[3] = Metabolism of 14C-parent in rat liver microsomes; format: in vitro ADME; details: 20 μM 14C-parent, NADPH, 30 minutes, 37° C.; HPLC radiochromatogram peak
Protocol: as §1, §2, §3

Dog hepatocytes = test: Metabolism of parent in dog hepatocytes; format: in vitro ADME, Beagle dogs; details: 20 μM parent, 2 million cells per ml, 4 hours, 37° C.
Protocol: (§4) Human hepatocytes were generated from a mix of 3 livers. Rat and monkey hepatocytes were generated using Sprague Dawley rats (12 livers), Cynomolgus monkey (1 liver) and Beagle dogs (2 livers). Cryopreserved hepatocytes were suspended in William's E media with 10% FBS to a viable count of 2 million cells per ml and gassed with 95/5 O2/CO2 initially and every hour of incubations. After the addition of 20 μM (3-{[4-tert-butyl-benzyl)-(pyridine-3-sulfonyl)-amino]-methyl}-phenoxy)-acetic acid to a 25 ml Erlenmeyer flask, 2.5 ml of hepatocytes suspension was added and incubated for 4 hours at 37° C. in a shaking water bath.
(§5) Metabolite quantification was performed by measuring the areas of individually separated HPLC peaks using the β-RAM (IN/US, Win-flow). The β-RAM provided integrated peak representation printouts in CPM as well as the percentage of the radiolabeled material. The β-RAM was operated using a solid scintillation cell.
Incubations were stopped by the addition of an equal volume of cold acetonitrile, sonicated and centrifuged at 3000 rpm for 10 minutes. The supernatants were removed and evaporated to dryness under nitrogen. Residues were reconstituted in 50:50 (acetonitrile: water) and aliquots (50-90 μl) were injected onto the HPLC system for analysis.
The HPLC system consisted of a HP-1100 solvent delivery system, a HP-1100 membrane degasser, a HP-1100 autoinjector (Hewlett Packard) and an IN/US radioactive monitor (β-RAM). Chromatography was performed on a YMC AQ (C-18) column (4.6 mm×150 mm, 3 μm) (Waters, Milford, Mass.). […]
as §3

[4] = Metabolism of 14C-parent in dog liver microsomes; format: in vitro ADME; details: 20 μM 14C-parent, NADPH, 30 minutes, 37° C.; HPLC radiochromatogram peak
Protocol: as §1, §2, §3

Monkey hepatocytes = test: Metabolism of parent in monkey hepatocytes; format: in vitro ADME, Cynomolgus monkey; details: 20 μM parent, 2 million cells per ml, 4 hours, 37° C.; mobile phase pH 5.0
Protocol: as §4
as §5, with “cell. […]” for “cell.”
as §3

Rat hepatocytes = test: Metabolism of parent in rat hepatocytes; format: in vitro ADME, Sprague Dawley rats; details: 20 μM parent, 2 million cells per ml, 4 hours, 37° C.
Protocol: as §4
as §5, with “cell. […]” for “cell.”
as §3

T1 sequence (Q62928 whole entry): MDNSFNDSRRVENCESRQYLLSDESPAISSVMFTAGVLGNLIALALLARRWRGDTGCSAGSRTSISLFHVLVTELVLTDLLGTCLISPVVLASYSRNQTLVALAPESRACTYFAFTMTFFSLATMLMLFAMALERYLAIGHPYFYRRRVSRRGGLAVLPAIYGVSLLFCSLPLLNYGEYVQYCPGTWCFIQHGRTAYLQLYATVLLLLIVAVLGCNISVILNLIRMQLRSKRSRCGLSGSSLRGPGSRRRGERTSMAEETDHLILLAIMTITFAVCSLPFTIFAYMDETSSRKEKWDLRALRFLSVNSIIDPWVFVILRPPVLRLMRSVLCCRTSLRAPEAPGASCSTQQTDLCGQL

Compound | Percent of Radioactivity, Dog hepatocytes (Dog hepatocytes) | Percent of Radioactivity, Rat hepatocytes (Rat hepatocytes) | also measured
CC(C)(C(=O)O)c1ccc(CN(Cc2cccc(OCC(=O)O)c2)S(=O)(=O)c2cccnc2)cc1 [Metabolite M3, 2-(4-{[(3-carboxymethoxy-benzyl)-(pyridine-3-sulfonyl)-amino]-methyl}-phenyl)-2-methyl-propionic acid] |  |  | IC50 [1]: 750 nM
CC(C)(C(=O)O)c1ccc(CNS(=O)(=O)c2cccnc2)cc1 [Metabolite M11, 2-methyl-2-{4-[(pyridine-3-sulfonylamino)-methyl]-phenyl}-propionic acid] |  |  | Percent of Radioactivity, Monkey liver microsomes [2]: 7.97%; Percent of Radioactivity, Rat liver microsomes [3]: 20.7%
CC(C)(C)c1ccc(CN(Cc2ccc(O)c(OCC(=O)O)c2)S(=O)(=O)c2cccnc2)cc1 [Metabolite M12, (5-{[(4-tert-butyl-benzyl)-(pyridine-3-sulfonyl)-amino]-methyl}-hydroxy-phenoxy)-acetic acid] | 15.0% |  | 
CC(C)(C)c1ccc(CNS(=O)(=O)c2cccnc2)cc1 [Metabolite M20, pyridine-3-sulfonic acid 4-tert-butyl-benzylamide] |  |  | Percent of Radioactivity, Dog liver microsomes [4]: 1.96%
CC(C)(CO)c1ccc(CNS(=O)(=O)c2cccnc2)cc1 [Metabolite M21, pyridine-3-sulfonic acid 4-(2-hydroxy-1,1-dimethyl-ethyl)-benzylamide] | 7.92% | 8.91% | Percent of Radioactivity, Monkey hepatocytes (Monkey hepatocytes): 4.53%
dihydroxy (3-{[4-tert-butyl-benzyl)-(pyridine-3-sulfonyl)-amino]-methyl}-phenoxy)-acetic acid [Metabolite M2] | 6.59% | 15.1% | 
